Laboratory results taken from patent EP0966282B1, “USE OF THE ANGIOTENSIN II ANTAGONISTS LOSARTAN AND EXP-3174 TO TREAT SYMPTOMATIC HEART FAILURE” (priority 1997, dated 1998).
Read-outs that look alike come from different tables or passages of the source. Marks after values point to notes of the source that are not given here.

Key:
[1] = system: patients with symptomatic heart failure; test: Meta-analysis of clinical events, Protocols A & B (Peto-modified Mantel-Haenszel method); type: in vivo; details: for CHF Hospitalization, Odds Ratio / Death, Odds Ratio: Meta-analysis Protocols A & B, odds in placebo group relative to losartan group
Method: This report summarizes the results of the Meta-analysis performed (as proposed in the Data Analysis Plan) on the observed mortality and congestive heart failure (CHF) hospitalization across these two studies. The mortality and CHF hospitalization were not predefined endpoints in the protocols but it was intended that they be analyzed as a part of safety. Thus results from these analyses should not be interpreted as a test of significance as there were no predefined hypotheses corresponding to these safety parameters. […] Odds ratio's with 95% confidence intervals have been provided for these variables. Peto-modified Mantel-Haenszel (Fleiss, J.L., Statistical Methods for Rates and Proportions, Wiley, NY, 1981.) method was used to carry out the Meta-analysis of death and CHF hospitalization rates in the two 12 week exercise studies. This method assumes homogeneity across the studies and provides a test for heterogeneity. […] Since the results from protocols A and B are consistent, a safety Meta-analysis as proposed in the Data Analysis Plan has been performed. Homogeneity between the two studies with respect to odds ratio's for death and CHF hospitalization was found.

[2] = system: patients with symptomatic heart failure; test: Exercise study Protocol B: 12-week placebo-controlled study of losartan, clinical events; type: in vivo; details: for CHF Hospitalization (during DB) / Death: 12 weeks; for Death: during double-blind therapy or related to Serious AE during double-blind
Excerpt: (§1) Protocols A & B were, multicenter, double-blind, randomized, parallel, placebo-controlled studies to investigate the effects of losartan on the exercise capacity and clinical status of patients over the age of 18 with symptomatic heart failure.
(§2) Approximately three hundred and fifty (350) patients with symptomatic heart failure (NYHA Functional Class II-IV, at least 50% Class III-IV) and left ventricular ejection fraction ≤40% were randomized to receive either losartan or placebo once daily for 12 weeks in each study. Following a minimum 15-day baseline placebo period, during which a minimum of 5 and maximum of 8 sets of baseline exercise tests (treadmill exercise test and 6-minute walk test) were performed, patients were randomized to treatment with losartan or placebo in a 2:1 ratio, respectively. According to the protocol's, patients must not have received an ACE-inhibitor for at least 6 weeks prior to the third baseline exercise test visit. Treatment with an ACE-inhibitor was not allowed at any time during these studies.
(§3) This report summarizes the results of the Meta-analysis performed (as proposed in the Data Analysis Plan) on the observed mortality and congestive heart failure (CHF) hospitalization across these two studies. The mortality and CHF hospitalization were not predefined endpoints in the protocols but it was intended that they be analyzed as a part of safety. Thus results from these analyses should not be interpreted as a test of significance as there were no predefined hypotheses corresponding to these safety parameters. […] Odds ratio's with 95% confidence intervals have been provided for these variables.
(§4) Peto-modified Mantel-Haenszel (Fleiss, J.L., Statistical Methods for Rates and Proportions, Wiley, NY, 1981.) method was used to carry out the Meta-analysis of death and CHF hospitalization rates in the two 12 week exercise studies. This method assumes homogeneity across the studies and provides a test for heterogeneity.
A total of three hundred and eighty five (385) patients were enrolled in the protocol B exercise study; 254 patients were randomized to receive losartan and 131 patients were randomized to receive placebo. There were 9 (6.9%) deaths in the placebo group as compared to 3 (1.2%) in the losartan group during the double-blind therapy or as related to serious AE during double-blind. Additionally there were 7 (5.3%) CHF hospitalizations in the placebo group as compared to 5 (2.0%) in the losartan group during the double-blind therapy or as related to serious AE during double-blind.

[3] = system: older patients with symptomatic heart failure; details: for hospitalized overall for any reason: 48-week study observation period, p=0.018
Excerpt: The study was approved by institutional review boards at each site; all patients gave written informed consent. An independent Data and Safety Monitoring Committee monitored the progress of the study. See Pitt B, Chang P, Timmermans P. Angiotensin II receptor antagonists in heart failure: Rationale and design of the Evaluation of Losartan in the Elderly (ELITE) Trial. Cardiovascular Drugs and Therapy 1995; 9: 693-700.
A detailed description of enrollment and exclusion criteria and study design has been presented previously. See Pitt B, Chang P, Timmermans P. Angiotensin II receptor antagonists in heart failure: Rationale and design of the Evaluation of Losartan in the Elderly (ELITE) Trial. Cardiovascular Drugs and Therapy 1995; 9: 693-700.
Titration generally occurred at 7-day intervals as tolerated. Treatment with all other concomitant cardiovascular therapies was permitted with the exception of open-label ACE inhibitors. Randomized patients were stratified by age (less than 70 and 70 years or greater).
Clinical assessments were performed weekly during titration and at three-month intervals thereafter. Laboratory evaluations were performed at weeks three, six, and twelve, and at three month intervals thereafter.
See Example 2) Hypotension-related symptoms, clinically important serum potassium increases (≥ 0.5 mEq/L), and cough, all originally secondary endpoints, were moved to tertiary endpoints. All deaths (including cause of death) and hospitalizations were adjudicated by an independent Clinical Endpoint Adjudication Committee, blinded to study treatment (see panel for mortality classification). Other prospectively-defined measures included myocardial infarction/hospitalization for unstable angina, worsening of heart failure, New York Heart Association functional classification, discontinuation from the study due to study drug intolerance, changes in neurohormonal profile.
• Sudden Cardiac Death: Death occurring without warning or within 1 hour of symptoms • Death due to Progressive Heart Failure: Death preceded by worsening signs and/or symptoms of heart failure, including cardiogenic shock • Fatal Myocardial Infarction: Death associated with autopsy-verified myocardial infarction or death within 28 days of a hospital-verified acute myocardial infarction provided no other cardiac or non-cardiac cause of death is found • Death due to Other Cardiac Causes: Death due to other cardiac causes, such as arrhythmia • Death due to Other Vascular Causes: Death due to vascular events such as stroke, pulmonary embolus, ruptured aneurysm, etc. • Death due to non-cardiovascular causes: Death not due to any cardiac or vascular events
The power and sample-size estimates for this study have been described. See Pitt B, Chang P, Timmermans P. Angiotensin II receptor antagonists in heart failure: Rationale and design of the Evaluation of Losartan in the Elderly (ELITE) Trial. Cardiovascular Drugs and Therapy 1995; 9: 693-700. Analysis of renal dysfunction (increases in serum creatinine) was based upon a modified intent-to-treat population; i.e., all patients were analyzed according to their randomization group, and an endpoint was declared only if initial and confirmatory elevations occurred while on double-blind therapy. Patients who discontinued from the study without meeting this endpoint were censored in the time-to-event analysis at the time of study discontinuation.
Analyses of deaths and heart failure hospitalizations (adjudicated endpoints) were based on an intent-to-treat population; all patients discontinued prematurely were followed through the specified 48-week period of the study. Patients not meeting the endpoint were censored in the time-to-event analysis either at the time of study completion (for patients who completed) or at the end of the 48-week follow-up period (for patients who discontinued).
For all time-to-event data, survival analyses were based upon the log-rank test.

[4] = system: patients with symptomatic heart failure; test: Exercise study Protocol A: 12-week placebo-controlled study of losartan, clinical events; type: in vivo; details: for CHF Hospitalization (during DB) / Death: 12 weeks; for CHF Hospitalization (during DB): one patient hospitalized 2 days after discontinuation included; for Death: during double-blind therapy or related to SAE during double-blind
Excerpt: as §1, §2, §3, §4
A total of three hundred and fifty one (351) patients were enrolled in the protocol A study; 237 patients were randomized to receive losartan and 114 patients were randomized to receive placebo. There were 4 (3.5%) deaths in the placebo group as compared to 4 (1.7%) in the losartan group during the double-blind therapy or as related to serious adverse events (AE) during double-blind. Additionally there were 10 (8.8%) CHF hospitalizations in the placebo group as compared to 10 (4.2%) in the losartan group during the double-blind therapy or as related to serious AE during double-blind. One patient included in the losartan group discontinued due to worsening HF and was hospitalized 2 days after discontinuation from double-blind period.

[5] = number of patients of 254 randomized to losartan
[6] = odds in placebo group relative to losartan group
[7] = losartan compared to captopril, controlled for age category
[8] = losartan compared to captopril, negative = increase in risk
[9] = number of patients of 237 randomized to losartan

CCCCc1nc(Cl)c(CO)n1Cc1ccc(-c2ccccc2-c2nn[nH]n2)cc1 [Losartan] was tested, and the “CHF Hospitalization, Odds Ratio” value [1] was 2.4*, the “Death, Odds Ratio” value [1] was 3.5* and the “CHF Hospitalization, Odds Ratio” value ([1]; listed as losartan) was 2.4. The “Death, Odds Ratio” value ([1]; listed as losartan) was 3.5, the “CHF Hospitalization (during double-blind)” value ([1]; Protocols A & B combined) was 3.1% ^a and the Death ([1]; Protocols A & B combined, during double-blind therapy or related to Serious AE) was 1.4%. The “CHF Hospitalization (during DB)” value [2] was 2.0%, the “CHF Hospitalization (during DB)” value ([2]; listed as losartan) was 2.0% and the Death [2] was 1.2%. For the same compound, the Death ([2]; listed as losartan) was 1.2%, the CHF hospitalizations [2, 5] was 5 and the deaths [2, 5] was 3. For the same compound, the “CHF Hospitalization, Odds Ratio” value [2, 6] was 2.7, the “Death, Odds Ratio” value [2, 6] was 5.6* and the “Death, Odds Ratio” value ([2]; odds in placebo group relative to losartan group, listed as losartan) was 5.6. For the same compound, the “hospitalized overall for any reason” value ([3]; number of patients) was 86 patients, the “hospitalized overall for any reason” value [3] was 24.4% and the “incidence of heart failure hospitalizations” value ([3]; 48 weeks) was 5.7%. The “Single rises of serum creatinine ≥0.3 mg/dL, risk reduction” value ([3]; human, in vivo) was 14%, the “incidence of death due to progressive heart failure” value ([3]; human, in vivo) was “less than one” and the “patients discontinued for renal function reason” value ([3]; human, in vivo) was “less than 2%”. The “persistent increases in serum creatinine ≥0.3 mg/dL from baseline” value ([3]; human, in vivo) was 10.5%, the tolerability ([3]; human, in vivo) was “better tolerated compared to captopril” and the “Cause of death: Cardiovascular, Fatal Myocardial Infarction” value ([3]; intent-to-treat, 48 weeks) was 1 (0.3) number (percent) of patients. For the same compound, the “Cause of death: Cardiovascular, Other Vascular” value ([3]; intent-to-treat, 48 weeks) was 5 (1.4) number (percent) of patients, the “Cause of death: Cardiovascular, Progressive Heart Failure” value ([3]; intent-to-treat, 48 weeks) was 1 (0.3) number (percent) of patients and the “Cause of death: Cardiovascular, Sudden Death” value ([3]; intent-to-treat, 48 weeks) was 5 (1.4) number (percent) of patients. The “Cause of death: Non-cardiovascular” value ([3]; intent-to-treat, 48 weeks) was 5 (1.4) number (percent) of patients, the “Death and/or Hospitalization for Heart Failure” value ([3]; intent-to-treat, 48 weeks) was 33 (9.4) number (percent) of patients and the “Hospitalization for Heart Failure” value ([3]; intent-to-treat, 48 weeks) was 20 (5.7) number (percent) of patients. For the same compound, the “total mortality” value ([3]; intent-to-treat, 48 weeks) was 17 (4.8) number (percent) of patients, the “Death and/or Hospitalization for Heart Failure, RISK REDUCTION (95% CI)” value [3, 7] was 0.32 (- 0.04, 0.55) and the “Fatal Myocardial Infarction, RISK REDUCTION (95% CI)” value [3, 7] was 0.76 (- 0.83, 0.97). For the same compound, the “Hospitalization for Heart Failure, RISK REDUCTION (95% CI)” value [3, 7] was 0.04 (- 0.74, 0.47), the “Non-cardiovascular death, RISK REDUCTION (95% CI)” value [3, 7] was 0.35 (- 0.94, 0.78) and the “Sudden Death, RISK REDUCTION (95% CI)” value [3, 7] was 0.64 ( 0.03, 0.86). The “Total Mortality, RISK REDUCTION (95% CI)” value [3, 7] was 0.46 ( 0.05, 0.69), the “Death from Other Vascular causes, RISK REDUCTION (95% CI)” value [3, 8] was -0.03 (- 2.63, 0.71) and the “Death from Progressive Heart Failure, RISK REDUCTION (95% CI)” value [3, 8] was -0.11 (-20.23, 0.94). The “decrease in total mortality (lower risk of death)” value ([3]; losartan versus captopril, 48 weeks, P=0.035) was 46%, the Fatal myocardial infarction ([3]; number of patients) was “one” and the “died of progressive heart failure” value ([3]; number of patients in each treatment group) was “one”. For the same compound, the total mortality ([3]; number of patients, p=0.035) was 17 patients, the sudden cardiac death ([3]; number of patients, p=0.043) was “five” and the “death and/or heart failure hospitalizations” value ([3]; of 352 losartan-treated, of 370 captopril-treated patients) was 33 patients. For the same compound, the “death and/or heart failure hospitalizations” value ([3]; percent of patients, p=0.075) was 9.4%, the female patients died ([3]; subpopulation of female patients: of 118 losartan-treated, of 122 captopril-treated) was 9 patients and the “patients classified as New York Heart Association Class I or II at the end of the study” value ([3]; week 48, versus 66 percent (losartan) and 64 percent (captopril) at baseline) was 80%. For the same compound, the “CHF Hospitalization (during DB)” value [4] was 4.2%^a, the “CHF Hospitalization (during DB)” value ([4]; listed as losartan) was 4.2% and the Death [4] was 1.7%. The Death ([4]; listed as losartan) was 1.7%, the CHF hospitalizations [4, 9] was 10 and the deaths [4, 9] was 4. For the same compound, the “CHF Hospitalization, Odds Ratio” value [4, 6] was 2.2 and the “Death, Odds Ratio” value [4, 6] was 2.1.
